Data published in patent US20240390340A1 (INCYTE CORPORATION, priority 2023, published 2024).

Assays:
KRAS G12V = KRAS G12V (Homo sapiens, UniProt P01116, G12V); test: GDP-GTP exchange assay (bodipy-GDP/GppNHp, SOS1), KRAS G12V; assay type: biochemical; conditions: KRAS G12V mutant; value for the most potent isomer quoted for certain compounds; read-out: G12V (KRAS G12V exchange assay IC50)
KRAS G12D = KRAS G12D (Homo sapiens, UniProt P01116, G12D); test: GDP-GTP exchange assay (bodipy-GDP/GppNHp, SOS1), KRAS G12D; assay type: biochemical; conditions: bodipy-loaded KRAS G12D 2.5 nM, 4 h pre-incubation; value for the most potent isomer quoted for certain compounds; read-out: G12D (KRAS G12D exchange assay IC50)
Sequence of KRAS G12D (P01116 1-188 isoform P01116-2 G12D): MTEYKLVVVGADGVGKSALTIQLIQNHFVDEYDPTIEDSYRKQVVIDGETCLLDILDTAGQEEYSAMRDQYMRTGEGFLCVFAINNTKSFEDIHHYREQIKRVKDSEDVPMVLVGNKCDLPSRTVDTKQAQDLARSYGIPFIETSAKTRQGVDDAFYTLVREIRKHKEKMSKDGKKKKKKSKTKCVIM

Sequence of KRAS G12V (P01116 1-188 isoform P01116-2 G12V): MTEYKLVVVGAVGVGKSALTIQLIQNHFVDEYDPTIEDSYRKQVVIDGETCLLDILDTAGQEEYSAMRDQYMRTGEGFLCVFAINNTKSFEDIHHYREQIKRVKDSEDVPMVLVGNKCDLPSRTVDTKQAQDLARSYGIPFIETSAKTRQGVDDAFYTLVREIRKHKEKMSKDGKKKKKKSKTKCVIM

SMILES	IC50 (KRAS G12V)	IC50 (KRAS G12D)
Cc1nc2c(F)c(-c3cccc(Cl)c3Cl)c(CCC#N)cc2c2c1cc([C@H]1C[C@H](OCc3cccc(C(=O)O)c3)CN1C(=O)C1CC1)n2[C@H]1[C@H]2CN[C@@H]1C2 [Example 165]	≤ 100 nM	≤ 100 nM
Cc1cccc(CO[C@H]2C[C@H](c3cc4c(C)nc5c(F)c(-c6cccc(Cl)c6Cl)c(CCC#N)cc5c4n3[C@H]3[C@H]4CN[C@@H]3C4)N(C(=O)C3CC3)C2)c1 [Example 91]	≤ 100 nM	≤ 100 nM
Cc1nc2c(F)c(-c3cccc(Cl)c3Cl)c(CCC#N)cc2c2c1cc([C@H]1C[C@H](OC3CC3C)CN1C(=O)C1CC1)n2[C@H]1[C@H]2CN[C@@H]1C2 (stereo partly drawn) [Example 379]	≤ 100 nM	≤ 100 nM
Cc1nc2c(F)c(-c3cccc(Cl)c3Cl)c(CCC#N)cc2c2c1cc([C@H]1C[C@H](OCc3ccccn3)[C@@H](C)N1C(=O)C1CC1)n2[C@H]1[C@H]2CN[C@@H]1C2 [Example 243]	≤ 100 nM	≤ 100 nM
Cc1nc2c(F)c(-c3cccc(Cl)c3Cl)c(CCC#N)cc2c2c1cc([C@H]1C[C@H](CCc3nccn3C)CN1C(=O)C1CC1)n2[C@H]1[C@H]2CN[C@@H]1C2 [Example 89]	≤ 100 nM	≤ 100 nM
N#CCCc1cc2c(nc(-c3ccc(N4CCOCC4)nc3)c3cc([C@H]4C[C@H](OCc5c(F)cccc5F)CN4C(=O)C4CC4)n([C@H]4[C@H]5CN[C@@H]4C5)c32)c(F)c1-c1cccc(Cl)c1Cl [Example 206]	≤ 100 nM	100 to 1000 nM
Cc1nc2c(F)c(-c3cccc(Cl)c3Cl)c(CCC#N)cc2c2c1cc([C@H]1C[C@H](OCc3cccc(C#N)c3F)CN1C(=O)C1CC1)n2[C@H]1[C@H]2CN[C@@H]1C2 [Example 151]	≤ 100 nM	≤ 100 nM
Cc1nc2c(F)c(-c3cccc(Cl)c3Cl)c(CCC#N)cc2c2c1cc([C@H]1C[C@H](Oc3nccs3)CN1C(=O)C1CC1)n2[C@H]1[C@H]2CN[C@@H]1C2 [Example 341]	≤ 100 nM	≤ 100 nM
Cc1nc2c(F)c(-c3cccc(Cl)c3Cl)c(CCC#N)cc2c2c1cc([C@H]1C[C@H](Oc3ccnn3C(F)(F)F)CN1C(=O)C1CC1)n2[C@H]1[C@H]2CN[C@@H]1C2 [Example 406]	≤ 100 nM	≤ 100 nM
Cc1nc2c(F)c(-c3cccc(Cl)c3Cl)c(CCC#N)cc2c2c1cc([C@H]1C[C@H](Oc3ccn(C)c3C(F)(F)F)CN1C(=O)C1CC1)n2[C@H]1[C@H]2CN[C@@H]1C2 [Example 407]	≤ 100 nM	≤ 100 nM
Cc1nc2c(F)c(-c3cccc(Cl)c3Cl)c(CCC#N)cc2c2c1cc([C@H]1C[C@H](n3cc4c(n3)CCC4)CN1C(=O)C1CC1)n2[C@H]1[C@H]2CN[C@@H]1C2 [Example 356]	≤ 100 nM	≤ 100 nM
Cc1nc2c(F)c(-c3cccc(Cl)c3Cl)c(CCC#N)cc2c2c1cc([C@H]1C[C@H](n3nnc(CO)c3C)CN1C(=O)C1CC1)n2[C@H]1[C@H]2CN[C@@H]1C2 [Example 326]	≤ 100 nM	≤ 100 nM
Cc1nc2c(F)c(-c3cccc(Cl)c3Cl)c(CCC#N)cc2c2c1cc([C@H]1C[C@H](n3cnc(C4CC4)n3)CN1C(=O)C1CC1)n2[C@H]1[C@H]2CN[C@@H]1C2 [Example 278]	≤ 100 nM	≤ 100 nM
Cc1nc2c(F)c(-c3cccc(Cl)c3Cl)c(CCC#N)cc2c2c1cc([C@H]1C[C@H](n3cnc(C4CCC4)n3)CN1C(=O)C1CC1)n2[C@H]1[C@H]2CN[C@@H]1C2 [Example 347]	≤ 100 nM	≤ 100 nM
Cc1cc(C)cc(O[C@H]2C[C@H](c3cc4c(C)nc5c(F)c(-c6cccc(Cl)c6Cl)c(CCC#N)cc5c4n3[C@H]3[C@H]4CN[C@@H]3C4)N(C(=O)C3CC3)C2)c1 [Example 166]	≤ 100 nM	≤ 100 nM
COc1ncc(C(F)(F)F)cc1O[C@H]1C[C@H](c2cc3c(C)nc4c(F)c(-c5cccc(Cl)c5Cl)c(CCC#N)cc4c3n2[C@H]2[C@H]3CN[C@@H]2C3)N(C(=O)C2CC2)C1 [Example 451]	≤ 100 nM	≤ 100 nM
Cc1nc2c(F)c(-c3cccc(Cl)c3Cl)c(CCC#N)cc2c2c1cc([C@H]1C[C@H](n3cc(Cn4ccccc4=O)nn3)CN1C(=O)C1CC1)n2[C@H]1[C@H]2CN[C@@H]1C2 [Example 324]	≤ 100 nM	≤ 100 nM
C[C@@H](O)c1nc2c(F)c(-c3cccc(Cl)c3Cl)c(CCC#N)cc2c2c1cc([C@H]1C[C@H](Oc3cc(F)ccn3)CN1C(=O)C1CC1)n2[C@H]1C2CNC1C2 (stereo partly drawn) [Example 425]	≤ 100 nM	≤ 100 nM
Cc1nc2c(F)c(-c3cccc(Cl)c3Cl)c(CCC#N)cc2c2c1cc([C@H]1C[C@H](OC3CCC(O)CC3)CN1C(=O)C1CC1)n2[C@H]1[C@H]2CN[C@@H]1C2 (stereo partly drawn) [Example 336]	≤ 100 nM	≤ 100 nM
Cc1nc2c(F)c(-c3cccc(Cl)c3Cl)c(CCC#N)cc2c2c1cc([C@H]1C[C@H](n3ncnn3)CN1C(=O)C1CC1)n2[C@H]1[C@H]2CN[C@@H]1C2 [Example 396]	≤ 100 nM	≤ 100 nM
[2H]C([2H])(O[C@H]1C[C@H](c2cc3c(C)nc4c(F)c(-c5cccc(Cl)c5Cl)c(CCC#N)cc4c3n2[C@H]2[C@H]3CN[C@@H]2C3)N(C(=O)C2CC2)[C@@H]1C)c1cc(C)sn1 [Example 241]	≤ 100 nM	≤ 100 nM
